From patent publication US10501516B2, “Peptide compound” (TAKEDA PHARMACEUTICAL COMPANY LIMITED, priority 2016, dated 2019)
Square brackets hold non-standard residues; d marks the D form. Side chains are listed from the residue outwards. Peptide text beside a SMILES is read from it. * marks the point of attachment. NMeY = CN[C@@H](Cc1ccc(O)cc1)C(=O)O; Palmitoyl = CCCCCCCCCCCCCCCC(=O)*; αMeF = C[C@](N)(Cc1ccccc1)C(=O)O; Iva = CC[C@](C)(N)C(=O)O; Aib = CC(C)(N)C(=O)O

Tested on: male C57BL/6J mouse
Test: Evaluation of feeding suppressive action in mice
Type: in vivo
Details: 30 nmol/kg s.c. once a day for 3 days; 3-days cumulative food consumption vs solvent control
Procedure: The feeding suppressive activity of a test compound was examined by the method described below.
The test compound was dissolved at a concentration of 30 or 100 nmol/2 mL in a solvent (10% DMSO-containing physiological saline). The test compound solution was subcutaneously administered at a dose of 2 mL/kg to the back of each male C57BL/6J mouse at 8-9 weeks of age (20-26° C., allowed to take food and water ad libitum; raised in the 12-hour bright-12-hour dark cycle). The administration was performed once a day for 3 days. After the administration, the mouse was individually raised in a rearing cage, and given previously weighed food; food consumption for 3 days after the start of administration was measured. The food consumption was calculated by subtracting the amount of remaining food from the weight of the food given on the day of the start of administration. When the food consumption of a control group receiving administration of the solvent alone was regarded as a suppression rate of 0%, the feeding suppressive activity of each test compound was evaluated on the basis of 3-days cumulative food consumption after the start of administration. The food intake suppression rate (%) of the test compound was defined as (Food consumption of the control group−Food consumption of the test compound-administered group)/Food consumption of the control group×100.

Structure (SMILES)	Rate of feeding suppression (%)
CCCCCCCCCCCCCCCC(=O)NCC(=O)NCC(=O)NCC(=O)NCC(=O)NCCCC[C@H](NC(=O)[C@H](CC(=O)O)NC(=O)[C@H](CO)NC(=O)[C@@H](NC(=O)[C@](C)(Cc1ccccc1)NC(=O)[C@@H](NC(=O)CNC(=O)[C@H](CCC(=O)O)NC(=O)C(C)(C)NC(=O)[C@@H](N)Cc1ccc(O)cc1)[C@@H](C)O)[C@@H](C)O)C(=O)N[C@@H](C)C(=O)N[C@H](C(=O)NC(C)(C)C(=O)N[C@@H](CC(C)C)C(=O)N[C@@H](CC(=O)O)C(=O)N[C@@H](CCCCN)C(=O)N[C@@H](CCC(N)=O)C(=O)N[C@@H](CCCNC(=N)N)C(=O)N[C@@H](CCC(N)=O)C(=O)N[C@@](C)(CC)C(=O)N[C@@H](CCC(=O)O)C(=O)N[C@@H](Cc1ccccc1)C(=O)N[C@H](C(=O)N[C@@H](CCCNC(=N)N)C(=O)N[C@@H](Cc1c[nH]cn1)C(=O)N[C@@H](CC(C)C)C(=O)N[C@@H](CC(C)C)C(=O)N[C@@H](CC(N)=O)C(=O)N[C@@H](CCCCN)C(=O)NC(C)(C)C(=O)N[C@H](C(=O)N[C@@H](CCCNC(=N)N)C(=O)N[C@@H](CCC(N)=O)C(=O)N[C@@H](CCCNC(=N)N)C(=O)N[C@@H](Cc1ccc(O)cc1)C(N)=O)[C@@H](C)O)C(C)C)[C@@H](C)CC [Example 11] (H-Y[Aib]EGT[αMeF]TSDK([Gly-Gly-Gly-Gly-Palmitoyl])AI[Aib]LDKQRQ[Iva]EFVRHLLNK[Aib]TRQRY-NH2)	−48.1
CCCCCCCCCCCCCCCC(=O)NCC(=O)NCC(=O)NCC(=O)NCC(=O)NCCCC[C@H](NC(=O)[C@H](CC(=O)O)NC(=O)[C@H](CO)NC(=O)[C@@H](NC(=O)[C@](C)(Cc1ccccc1)NC(=O)[C@@H](NC(=O)CNC(=O)[C@H](CCC(=O)O)NC(=O)C(C)(C)NC(=O)[C@@H](N)Cc1ccc(O)cc1)[C@@H](C)O)[C@@H](C)O)C(=O)NC(C)(C)C(=O)N[C@H](C(=O)NC(C)(C)C(=O)N[C@@H](CC(C)C)C(=O)N[C@@H](CCC(=O)O)C(=O)N[C@@H](CCCCN)C(=O)N[C@@H](CCC(N)=O)C(=O)N[C@@H](CCCNC(=N)N)C(=O)N[C@@H](CCC(N)=O)C(=O)N[C@@](C)(CC)C(=O)N[C@@H](CCC(=O)O)C(=O)N[C@@H](Cc1ccccc1)C(=O)N[C@H](C(=O)N[C@@H](CCCNC(=N)N)C(=O)N[C@@H](Cc1c[nH]cn1)C(=O)N[C@@H](CC(C)C)C(=O)N[C@@H](CC(C)C)C(=O)N[C@@H](CC(N)=O)C(=O)N[C@@H](CCCCN)C(=O)NC(C)(C)C(=O)N[C@H](C(=O)N[C@@H](CCCNC(=N)N)C(=O)N[C@@H](CCC(N)=O)C(=O)N[C@@H](CCCNC(=N)N)C(=O)N[C@@H](Cc1ccc(O)cc1)C(N)=O)[C@@H](C)O)C(C)C)[C@@H](C)CC [Example 31] (H-Y[Aib]EGT[αMeF]TSDK([Gly-Gly-Gly-Gly-Palmitoyl])[Aib]I[Aib]LEKQRQ[Iva]EFVRHLLNK[Aib]TRQRY-NH2)	−56.8
CCCCCCCCCCCCCCCC(=O)NCC(=O)NCC(=O)NCC(=O)NCC(=O)NCCCC[C@H](NC(=O)[C@H](CC(=O)O)NC(=O)[C@H](CO)NC(=O)[C@@H](NC(=O)[C@](C)(Cc1ccccc1)NC(=O)[C@@H](NC(=O)CNC(=O)[C@H](CCC(=O)O)NC(=O)C(C)(C)NC(=O)[C@H](Cc1ccc(O)cc1)NC)[C@@H](C)O)[C@@H](C)O)C(=O)NC(C)(C)C(=O)N[C@@H](CCCCN)C(=O)NC(C)(C)C(=O)N[C@@H](CC(C)C)C(=O)N[C@@H](CC(=O)O)C(=O)N[C@@H](CCCCN)C(=O)N[C@@H](CCC(N)=O)C(=O)N[C@@H](CCCNC(=N)N)C(=O)N[C@@H](CCC(N)=O)C(=O)N[C@@](C)(CC)C(=O)N[C@@H](CCC(=O)O)C(=O)N[C@@H](Cc1ccccc1)C(=O)N[C@H](C(=O)N[C@@H](CCCNC(=N)N)C(=O)N[C@@H](Cc1c[nH]cn1)C(=O)N[C@@H](CC(C)C)C(=O)N[C@@H](CC(C)C)C(=O)N[C@@H](CC(N)=O)C(=O)N[C@@H](CCCCN)C(=O)NC(C)(C)C(=O)N[C@H](C(=O)N[C@@H](CCCNC(=N)N)C(=O)N[C@@H](CCC(N)=O)C(=O)N[C@@H](CCCNC(=N)N)C(=O)N[C@@H](Cc1ccc(O)cc1)C(N)=O)[C@@H](C)O)C(C)C [Example 21] (H-[NMeY][Aib]EGT[αMeF]TSDK([Gly-Gly-Gly-Gly-Palmitoyl])[Aib]K[Aib]LDKQRQ[Iva]EFVRHLLNK[Aib]TRQRY-NH2)	−27.9
CCCCCCCCCCCCCCCC(=O)NCC(=O)NCC(=O)NCC(=O)NCC(=O)NCCCC[C@H](NC(=O)[C@H](CC(=O)O)NC(=O)[C@H](CO)NC(=O)[C@@H](NC(=O)[C@](C)(Cc1ccccc1)NC(=O)[C@@H](NC(=O)CNC(=O)[C@H](CCC(=O)O)NC(=O)C(C)(C)NC(=O)[C@H](Cc1ccc(O)cc1)NC)[C@@H](C)O)[C@@H](C)O)C(=O)N[C@@H](CO)C(=O)N[C@@H](CCCCN)C(=O)NC(C)(C)C(=O)N[C@@H](CC(C)C)C(=O)N[C@@H](CC(=O)O)C(=O)N[C@@H](CCCCN)C(=O)N[C@@H](CCC(N)=O)C(=O)N[C@@H](CCCNC(=N)N)C(=O)N[C@@H](CCC(N)=O)C(=O)N[C@@](C)(CC)C(=O)N[C@@H](CCC(=O)O)C(=O)N[C@@H](Cc1ccccc1)C(=O)N[C@H](C(=O)N[C@@H](CCCNC(=N)N)C(=O)N[C@@H](Cc1c[nH]cn1)C(=O)N[C@@H](CC(C)C)C(=O)N[C@@H](CC(C)C)C(=O)N[C@@H](CC(N)=O)C(=O)N[C@@H](CCCCN)C(=O)NC(C)(C)C(=O)N[C@H](C(=O)N[C@@H](CCCNC(=N)N)C(=O)N[C@@H](CCC(N)=O)C(=O)N[C@@H](CCCNC(=N)N)C(=O)N[C@@H](Cc1ccc(O)cc1)C(N)=O)[C@@H](C)O)C(C)C [Example 25] (H-[NMeY][Aib]EGT[αMeF]TSDK([Gly-Gly-Gly-Gly-Palmitoyl])SK[Aib]LDKQRQ[Iva]EFVRHLLNK[Aib]TRQRY-NH2)	−41.7
CCCCCCCCCCCCCCCC(=O)NCC(=O)NCC(=O)NCC(=O)NCC(=O)NCCCC[C@H](NC(=O)[C@H](CC(=O)O)NC(=O)[C@H](CO)NC(=O)[C@@H](NC(=O)[C@](C)(Cc1ccccc1)NC(=O)[C@@H](NC(=O)CNC(=O)[C@H](CCC(=O)O)NC(=O)C(C)(C)NC(=O)[C@@H](N)Cc1ccc(O)cc1)[C@@H](C)O)[C@@H](C)O)C(=O)N[C@@H](C)C(=O)N[C@H](C(=O)NC(C)(C)C(=O)N[C@@H](CC(C)C)C(=O)N[C@@H](CCC(=O)O)C(=O)N[C@@H](CCCCN)C(=O)N[C@@H](CCC(N)=O)C(=O)N[C@@H](CCCNC(=N)N)C(=O)N[C@@H](CCC(N)=O)C(=O)N[C@@](C)(CC)C(=O)N[C@@H](CCC(=O)O)C(=O)N[C@@H](Cc1ccccc1)C(=O)N[C@H](C(=O)N[C@@H](CCCNC(=N)N)C(=O)N[C@@H](Cc1c[nH]cn1)C(=O)N[C@@H](CC(C)C)C(=O)N[C@@H](CC(C)C)C(=O)N[C@@H](CC(N)=O)C(=O)N[C@@H](CCCCN)C(=O)NC(C)(C)C(=O)N[C@H](C(=O)N[C@@H](CCCNC(=N)N)C(=O)N[C@@H](CCC(N)=O)C(=O)N[C@@H](CCCNC(=N)N)C(=O)N[C@@H](Cc1ccc(O)cc1)C(N)=O)[C@@H](C)O)C(C)C)[C@@H](C)CC [Example 35] (H-Y[Aib]EGT[αMeF]TSDK([Gly-Gly-Gly-Gly-Palmitoyl])AI[Aib]LEKQRQ[Iva]EFVRHLLNK[Aib]TRQRY-NH2)	−52.6
